# Literature values in patent publication US20220211813A1, “METHODS FOR TREATMENT OF NIEMANN-PICK DISEASE TYPE C” (LOMA LINDA UNIVERSITY, priority 2019, published 2022).
# Test system: IFN-γ
# Conditions: as described in Pododlin et al. J Pharmacol Exp Ther. 312(1):373-81, 2005
smiles,measurement,value
NC(=O)Nc1sc(-c2ccc(F)cc2)cc1C(N)=O [TPCA-1],blocks IFN-γ,about 50%
